Data on seven compounds can be found in paper PMC5823845 (Bioorganic & Medicinal Chemistry, 2018).

Data set [1] in a line: Log D pH 7.4, octanol/buffer shake flask method.
Description: Briefly, octanol (pre-saturated with buffer) is added to the test compound and sonicated. Buffer at pH 7.4 (presaturated with octanol) is then added to the octanol. […] The system is mixed to allow distribution of the compound between the two phases.
Log D = Log (Coct / Caq ). Where: Coct = Concentration in octanol sample (corrected for dilution) and Caq = Concentration in aqueous sample (corrected for dilution)
The conditions of data set [2]: in the absence of S9; cited from earlier work.
The subject of another data set is HEPG2 cells. Kind of data set: High-content cell toxicity screen in HEPG2 cells. The data set is classed as cell-based. The following applies: concentrations between 10 and 30 μM. The procedure:
Effect on the cell or mitochondrial viability markers in HepG2 cells were tested for compounds up to 50 μM. HepG2 cells were plated on 96-well tissue culture treated black walled clear bottomed polystyrene plates at 0:3 _ 104 cells in 100_L per well. After 24 hr the cells were dosed with the test compound at a range of concentrations (see Assay Summary for details). At the end of the incubation period, the cells were loaded with the relevant dye/antibody for each cell health marker. The plates were then scanned using an automated fluorescent cellular imager, ArrayScanr VTI (Thermo Scientific Cellomics).

Data set [3] can be described thus: Intrinsic clearance in liver microsomes. The class given is in vitro ADME. The following applies: 37 °C, NADPH, 45 min, mean of 5. The procedure: The reaction is terminated by the addition of methanol. Following centrifugation, the supernatant is analyzed on the LC-MS/MS. […] The data is the mean on 5 separate experiments.
The ln peak area ratio (compound peak area/internal standard peak area) is plotted against time and the gradient of the line determined.
(see Supplementary data file for details).
Background: Liver microsomes are a subcellular fraction often used to study metabolism.

In another data set the target is T1, Cyp 450 2C9 (Homo sapiens, UniProt P11712).
T1 construct: tissue Cyprotex (CRO); host or cells: human liver microsomes
Kind of data set: Cytochrome P450 inhibition in human liver microsomes. The data set is classed as in vitro ADME. The note with it: at 25 μM. The procedure:
(§1) The five main cytochrome P450 isoforms (CYP1A, CYP2C9, CYP2C19, CYP2D6 and CYP3A4) were investigated in the P450 inhibition assay. […] At the end of the incubation, the formation of the metabolite was monitored by LC-MS/MS (or fluorescence in the case of CYP1A) at each of the test compound concentrations.

For a further data set, the target named is T2, Cyp 450 2C19 (Homo sapiens, UniProt P33261).
T2 construct: tissue Cyprotex (CRO); host or cells: human liver microsomes
The description is as above. The class given is in vitro ADME. The following applies: at 25 μM. The protocol: as §1

The target in a further data set is T3, Cyp 450 3A4 (Homo sapiens, UniProt P08684).
T3 construct: tissue Cyprotex (CRO); host or cells: human liver microsomes
The data set is described as above. The class given is in vitro ADME. The note with it: at 25 μM. The protocol: as §1

Another data set concerns the target T4, Cyp 450 2D6 (Homo sapiens, UniProt P10635).
T4 construct: tissue Cyprotex (CRO); host or cells: human liver microsomes
The description is as above. The data set is classed as in vitro ADME. The following applies: at 25 μM. The procedure: as §1

The target in the next data set is T5, Cyp 450 1A2 (Homo sapiens, UniProt P05177).
T5 construct: tissue Cyprotex (CRO); host or cells: human liver microsomes
T5 sequence (P05177 1-516): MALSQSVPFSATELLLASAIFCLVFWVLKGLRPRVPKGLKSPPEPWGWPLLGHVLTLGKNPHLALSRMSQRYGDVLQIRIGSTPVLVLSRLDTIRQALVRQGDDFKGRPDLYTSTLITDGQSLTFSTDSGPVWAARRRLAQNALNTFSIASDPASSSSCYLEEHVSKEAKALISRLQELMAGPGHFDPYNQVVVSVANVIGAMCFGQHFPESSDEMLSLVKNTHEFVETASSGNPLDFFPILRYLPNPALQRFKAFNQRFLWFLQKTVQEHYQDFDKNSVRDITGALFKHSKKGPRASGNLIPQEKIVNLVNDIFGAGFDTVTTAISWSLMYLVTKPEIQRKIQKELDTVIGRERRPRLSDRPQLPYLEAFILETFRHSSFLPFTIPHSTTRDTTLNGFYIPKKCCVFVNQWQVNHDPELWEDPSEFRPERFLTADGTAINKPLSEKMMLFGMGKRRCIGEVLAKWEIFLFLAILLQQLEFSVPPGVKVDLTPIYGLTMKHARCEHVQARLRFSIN
The description is as above. The note with it: at 25 μM. The data set is classed as in vitro ADME. The protocol:
as §1

The target in a further data set is T6, mouse RAR alpha receptor (Mus musculus, UniProt P11416).
T6 sequence (P11416 183-417 limits assumed): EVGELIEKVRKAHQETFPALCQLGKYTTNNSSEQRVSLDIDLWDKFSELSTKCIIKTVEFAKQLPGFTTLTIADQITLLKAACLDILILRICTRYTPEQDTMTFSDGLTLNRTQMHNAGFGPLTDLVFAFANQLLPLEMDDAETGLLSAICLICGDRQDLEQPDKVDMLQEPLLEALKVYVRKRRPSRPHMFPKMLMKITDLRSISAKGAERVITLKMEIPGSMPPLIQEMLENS
The note with it: relative to the amplitude of the normalizing ATRA output.

The next data set is described as follows: PK studies in rats. The class given is in vivo, Sprague-Dawley rats. The note with it: for rat pK Cl: iv 0.5 mg/kg; for rat pK Cl / bioavailability: n = 4; for bioavailability: male, Sprague-Dawley, rat, 10 mg/kg po vs 0.5 mg/kg iv, read-out: rat pK F%; for rat pK AUC po: 10 mg/kg po, 8% Ethanol/92% PEG-400, n = 4. The protocol:
The Test Items were orally administered at a dose of 10 mg/kg and a dosing volume of 10 mL/kg. […] The Test Items were intravenously administered at a dose of 0.5 mg/kg and a dosing volume of 2 mL/kg. […] Whole blood concentrations of the Test Items were measured using LC-MS/MS and selected pharmacokinetic parameters calculated using Pharsight WinNonLin software. For furthers details see Supplementary data file.

The target in the next data set is T7, mouse RAR beta receptor (Mus musculus, UniProt P22605).
T7 sequence (P22605 210-444 limits assumed): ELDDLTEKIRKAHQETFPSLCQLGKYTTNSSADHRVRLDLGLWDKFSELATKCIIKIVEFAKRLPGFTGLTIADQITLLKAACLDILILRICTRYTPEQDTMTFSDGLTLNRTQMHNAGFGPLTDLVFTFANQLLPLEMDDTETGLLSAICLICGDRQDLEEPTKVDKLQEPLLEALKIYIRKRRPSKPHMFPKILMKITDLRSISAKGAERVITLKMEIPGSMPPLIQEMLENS
The following applies: ratio of relative EC50s RARβ/RARα.

The target of a further data set is T8, mouse RAR gamma receptor (Mus musculus, UniProt P18911).
T8 sequence (P18911 185-419 limits assumed): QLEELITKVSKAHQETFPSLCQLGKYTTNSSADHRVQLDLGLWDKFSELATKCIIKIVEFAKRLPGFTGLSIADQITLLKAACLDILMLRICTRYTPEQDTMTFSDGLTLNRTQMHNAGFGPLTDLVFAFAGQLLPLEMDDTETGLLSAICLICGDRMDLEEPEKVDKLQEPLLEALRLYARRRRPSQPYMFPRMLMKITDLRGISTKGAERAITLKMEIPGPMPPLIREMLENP
The following applies: mouse; ratio of relative EC50s RARγ/RARα.

Where [4] appears, read: liver microsomes, human microsomes.
Where [5] appears, read: liver microsomes, mouse microsomes.

Where two headings read alike, the source gives them in different places.

T4 sequence (P10635 whole entry): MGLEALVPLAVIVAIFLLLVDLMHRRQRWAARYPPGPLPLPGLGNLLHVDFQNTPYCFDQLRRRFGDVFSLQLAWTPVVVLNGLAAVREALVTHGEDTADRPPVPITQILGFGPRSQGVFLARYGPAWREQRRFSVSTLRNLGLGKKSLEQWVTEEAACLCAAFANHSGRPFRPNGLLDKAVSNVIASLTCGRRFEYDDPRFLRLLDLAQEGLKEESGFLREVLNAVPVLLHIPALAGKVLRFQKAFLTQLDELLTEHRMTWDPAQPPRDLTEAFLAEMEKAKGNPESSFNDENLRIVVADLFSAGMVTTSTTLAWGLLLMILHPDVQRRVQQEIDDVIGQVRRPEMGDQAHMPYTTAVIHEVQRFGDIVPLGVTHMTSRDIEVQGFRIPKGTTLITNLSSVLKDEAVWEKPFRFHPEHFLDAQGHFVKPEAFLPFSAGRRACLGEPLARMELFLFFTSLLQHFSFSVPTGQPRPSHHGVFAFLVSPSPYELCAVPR
T3 sequence (P08684 whole entry): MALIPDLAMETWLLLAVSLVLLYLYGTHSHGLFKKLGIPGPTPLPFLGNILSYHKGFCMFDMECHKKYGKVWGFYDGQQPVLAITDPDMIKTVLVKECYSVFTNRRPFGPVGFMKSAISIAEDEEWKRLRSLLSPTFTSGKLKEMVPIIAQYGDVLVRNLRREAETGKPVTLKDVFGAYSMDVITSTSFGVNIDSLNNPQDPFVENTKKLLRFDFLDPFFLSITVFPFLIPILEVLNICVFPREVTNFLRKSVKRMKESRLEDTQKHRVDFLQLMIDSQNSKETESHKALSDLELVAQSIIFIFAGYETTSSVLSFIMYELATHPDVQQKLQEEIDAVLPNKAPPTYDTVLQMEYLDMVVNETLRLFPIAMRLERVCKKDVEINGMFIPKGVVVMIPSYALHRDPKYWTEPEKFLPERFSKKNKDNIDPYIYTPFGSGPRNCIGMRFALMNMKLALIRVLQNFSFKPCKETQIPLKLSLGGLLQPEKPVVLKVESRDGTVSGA
T2 sequence (P33261 whole entry): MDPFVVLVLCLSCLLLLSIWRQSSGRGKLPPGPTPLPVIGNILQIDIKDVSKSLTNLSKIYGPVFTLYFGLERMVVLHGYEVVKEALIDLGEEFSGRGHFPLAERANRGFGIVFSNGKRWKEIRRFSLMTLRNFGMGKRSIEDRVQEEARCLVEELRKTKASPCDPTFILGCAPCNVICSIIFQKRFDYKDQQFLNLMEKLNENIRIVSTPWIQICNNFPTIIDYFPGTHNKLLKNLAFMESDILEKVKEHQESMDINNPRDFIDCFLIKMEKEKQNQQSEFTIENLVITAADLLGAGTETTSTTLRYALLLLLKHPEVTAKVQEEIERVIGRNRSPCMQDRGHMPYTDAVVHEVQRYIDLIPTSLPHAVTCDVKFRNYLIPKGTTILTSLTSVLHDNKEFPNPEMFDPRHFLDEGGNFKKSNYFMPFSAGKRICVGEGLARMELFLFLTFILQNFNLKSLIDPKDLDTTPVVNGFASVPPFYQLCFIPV
T1 sequence (P11712 whole entry): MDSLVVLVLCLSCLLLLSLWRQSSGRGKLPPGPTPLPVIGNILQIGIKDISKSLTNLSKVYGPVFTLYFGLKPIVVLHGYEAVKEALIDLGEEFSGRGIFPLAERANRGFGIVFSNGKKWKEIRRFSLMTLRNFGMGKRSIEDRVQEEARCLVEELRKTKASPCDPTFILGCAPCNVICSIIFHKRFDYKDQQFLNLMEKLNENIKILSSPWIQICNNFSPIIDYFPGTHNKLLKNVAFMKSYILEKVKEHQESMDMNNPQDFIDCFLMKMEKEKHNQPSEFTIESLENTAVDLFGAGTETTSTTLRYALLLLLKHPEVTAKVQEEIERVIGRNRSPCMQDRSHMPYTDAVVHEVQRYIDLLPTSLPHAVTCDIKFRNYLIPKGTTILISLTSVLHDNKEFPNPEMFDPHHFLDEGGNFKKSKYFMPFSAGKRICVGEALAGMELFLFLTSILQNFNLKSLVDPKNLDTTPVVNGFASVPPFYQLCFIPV

In turn, `CC1(C)CCC(C)(C)c2cc(C(=O)Nc3ccc(C(=O)O)cc3)ccc21` [Compound 2] displayed a logD in [1] of 2.8. Further, the mutagenicity in vitro result in data set [2] is on record as “mutagen”. In addition, in the data set on HEPG2 cells, the cell membrane permeability result was “significant increase” and the mitochondrial membrane potential entry is recorded as “significant decrease”. This compound registered a microsomal CLint in [3] (setting [4]) of 15.6 µL/min/mg.
As for `CCOc1c(Cl)cc(C(=O)Nc2ccc(C(=O)O)cc2)cc1Cl` [Compound 5, 4-(3,5-dichloro-4-ethoxybenzamido)benzoic acid], the logD in [1] is 1.7. On Cyp 450 2C9, the “Cyp 2C9 liability” value was “inactive”. Further, the “Cyp 2C19 liability” value on Cyp 450 2C19 is “inactive”. Further, the “Cyp 3A4 liability” value on Cyp 450 3A4 was “inactive”. Also, the “Cyp 2D6 liability” value at Cyp 450 2D6 was “inactive”. For the same compound, the Cyp1A liability result at Cyp 450 1A2 was “inactive”. Further, the results for the microsomal CLint in data set [3] (setting [4]) and in data set [3] (setting [5]) were 18 µL/min/mg and 127 µL/min/mg, respectively.
In [1], `CCOc1c(OC(C)C)cc(C(=O)Nc2ccc(C(=O)O)cc2)cc1OC(C)C` [Compound 31, 4-(4-Ethoxy-3,5-diisopropoxybenzamido)benzoic acid] displayed a logD of 1.6. On mouse RAR alpha receptor, the “RARα agonist type (partial / full agonist)” value is on record as “partial RARα agonist”. The “rat pK Cl” value in the data set “PK studies in rats” is 1 mL/kg/min. In “PK studies in rats” (in vivo), the bioavailability turned out to be 81%. Moreover, the microsomal CLint in data set [3] (human microsomes) stood at 4 µL/min/mg; in data set [3] (mouse microsomes) it was 8 µL/min/mg.
In [1], `CC(C)Oc1cc(C(=O)Nc2ccc(C(=O)O)cc2)cc(Cl)c1OC(C)C` [Compound 39, 4-(3-chloro-4,5-diisopropoxybenzamido)benzoic acid] returned a logD of 2.6. On mouse RAR alpha receptor, the “RARα agonist type (partial / full agonist)” value was “full agonist”. In addition, in “PK studies in rats”, the “rat pK AUC po” value is listed as 43,569 ng·min mL^−1 and the “rat pK Cl” value was found to be 10 mL/kg/min. Besides, in the data set “PK studies in rats” (whole blood), the bioavailability was determined as 39%. In [3] (setting [5]), this compound returned a microsomal CLint of 31 µL/min/mg.
For `CCOc1c(Cl)cc(C(=O)Nc2ccc(C(=O)O)cc2)cc1OC(C)C` [Compound 49, 4-(3-Chloro-4-ethoxy-5-isopropoxybenzamido)benzoic acid], the logD in [1] turned out to be 1.7. Also, on mouse RAR alpha receptor, the “RARα agonist type (partial / full agonist)” value is reported as “partial agonist”. In addition, the intrinsic metabolic clearance (microsomal CLint) in data set [3] (setting [4]) was 11 µL/min/mg; in data set [3] (setting [5]), 41 µL/min/mg.
As for `COc1c(Cl)cc(C(=O)Nc2ccc(C(=O)O)cc2)cc1OC(C)C` [Compound 51], in [1], the pH-dependent lipophilicity (logD) stood at 1. Moreover, the “RARα agonist type (partial / full agonist)” value on mouse RAR alpha receptor was “full agonist”. Further, in “PK studies in rats”, the “rat pK AUC po” value is reported as 50,940 ng·min mL^−1 and the “rat pK Cl” value came to 3 mL/kg/min. Besides, in “PK studies in rats” (whole blood), the bioavailability came to 13%. Moreover, the intrinsic clearance (microsomal CLint) in [3] (setting [4]) worked out at 12 µL/min/mg. Moreover, the microsomal CLint in data set [3] (setting [5]) came to 9 µL/min/mg.
`COc1c(Cl)cc(C(=O)Nc2ccc(C(=O)O)c(C)c2)cc1OC(C)C` [Compound 55]: the logD in data set [1] was 1.3. Also, on mouse RAR beta receptor, the β/α ratio came to 241. For the same compound, on mouse RAR gamma receptor, the γ/α ratio amounted to 509. Besides, at mouse RAR alpha receptor, the “RARα agonist type (partial / full agonist)” value is recorded as “partial RARα agonist activity”. Moreover, the intrinsic clearance (microsomal CLint) amounted to 1.5 µL/min/mg in data set [3] (setting [4]) and 10.6 µL/min/mg in data set [3] (setting [5]).

The logD is lipophilicity at a set pH, counting ionised and neutral species. Low values mean lower lipophilicity, high ones higher lipophilicity. By microsomal CLint is commonly meant the capacity of the preparation to metabolise the compound, expressed as a volume cleared per time. Lower therefore signals slow turnover.
